Literature values in PubChem BioAssay AID1259409 (Chemical Carcinogenesis Research Information System (CCRIS), 2018).

Test system: rodent chemically induced tumor inhibition, incidence and multiplicity
Test: CCRIS tumor inhibitor studies
Details: Route [Inhibitor]: ORAL, Species: RAT

SMILES: CCCCCCCCCCCCCCCC(=O)CC(=O)CCCCCCCCCCCCCCC
- tumour outcome (control, treated, inhibition, significance) (Carcinogen: 2,2'-DIHYDROXY-DI-N-PROPYLNITROSAMINE, 53609-64-6, N-ETHYL-N-HYDROXYETHYLNITROSAMINE, 13147-25-6, 3,2'-DIMETHYL-4-AMINO-, Carcinogen: 2,2'-DIHYDROXY-DI-N-PROPYLNITROSAMINE, 53609-64-6, N-ETHYL-N-HYDROXYETHYLNITROSAMINE, 13147-25-6, 3,2'-DIMETHYL-4-AMINO-, Dose [Inhibitor]: 0, 0.2% IN DIET FOR 32 WK BEGINNING 1 WK POST CARCINOGEN TREATMENT (STUDY DURATION: 36 WK), Strain/Sex: F344/MALE, Target Tissue: Type of Lesion: LARGE INTESTINE: ADENOMA, Dose [Carcinogen]: 1000 MG/KG BW DHPN TWICE, 1500 MG/KG BW EHEN TWICE, 75 MG/KG BW 3 TIMES ADMINISTERED OVER FIRST 3 WK, Promoter: NONE USED): 7/14 (50%), 7/15 (47%), 6%, not significant
- tumour outcome (control, treated, inhibition, significance) (Carcinogen: 2,2'-DIHYDROXY-DI-N-PROPYLNITROSAMINE, 53609-64-6, N-ETHYL-N-HYDROXYETHYLNITROSAMINE, 13147-25-6, 3,2'-DIMETHYL-4-AMINO-, Carcinogen: 2,2'-DIHYDROXY-DI-N-PROPYLNITROSAMINE, 53609-64-6, N-ETHYL-N-HYDROXYETHYLNITROSAMINE, 13147-25-6, 3,2'-DIMETHYL-4-AMINO-, Dose [Inhibitor]: 0, 0.2% IN DIET FOR 32 WK BEGINNING 1 WK POST CARCINOGEN TREATMENT (STUDY DURATION: 36 WK), Strain/Sex: F344/MALE, Target Tissue: Type of Lesion: LARGE INTESTINE: CARCINOMA, Dose [Carcinogen]: 1000 MG/KG BW DHPN TWICE, 1500 MG/KG BW EHEN TWICE, 75 MG/KG BW 3 TIMES ADMINISTERED OVER FIRST 3 WK, Promoter: NONE USED): 3/14 (21%), 2/15 (13%0, 38%, not significant
- tumour outcome (control, treated, inhibition, significance) (Carcinogen: 2,2'-DIHYDROXY-DI-N-PROPYLNITROSAMINE, 53609-64-6, N-ETHYL-N-HYDROXYETHYLNITROSAMINE, 13147-25-6, 3,2'-DIMETHYL-4-AMINO-, Carcinogen: 2,2'-DIHYDROXY-DI-N-PROPYLNITROSAMINE, 53609-64-6, N-ETHYL-N-HYDROXYETHYLNITROSAMINE, 13147-25-6, 3,2'-DIMETHYL-4-AMINO-, Dose [Inhibitor]: 0, 0.2% IN DIET FOR 32 WK BEGINNING 1 WK POST CARCINOGEN TREATMENT (STUDY DURATION: 36 WK), Strain/Sex: F344/MALE, Target Tissue: Type of Lesion: LIVER: HEPATOCELLULAR CARCINOMA, Dose [Carcinogen]: 1000 MG/KG BW DHPN TWICE, 1500 MG/KG BW EHEN TWICE, 75 MG/KG BW 3 TIMES ADMINISTERED OVER FIRST 3 WK, Promoter: NONE USED): 6/14 (43%), 1/15 (7%), 84%, p<0.05
- tumour outcome (control, treated, inhibition, significance) (Carcinogen: 2,2'-DIHYDROXY-DI-N-PROPYLNITROSAMINE, 53609-64-6, N-ETHYL-N-HYDROXYETHYLNITROSAMINE, 13147-25-6, 3,2'-DIMETHYL-4-AMINO-, Carcinogen: 2,2'-DIHYDROXY-DI-N-PROPYLNITROSAMINE, 53609-64-6, N-ETHYL-N-HYDROXYETHYLNITROSAMINE, 13147-25-6, 3,2'-DIMETHYL-4-AMINO-, Dose [Inhibitor]: 0, 0.2% IN DIET FOR 32 WK BEGINNING 1 WK POST CARCINOGEN TREATMENT (STUDY DURATION: 36 WK), Strain/Sex: F344/MALE, Target Tissue: Type of Lesion: LUNG: ADENOMA, Dose [Carcinogen]: 1000 MG/KG BW DHPN TWICE, 1500 MG/KG BW EHEN TWICE, 75 MG/KG BW 3 TIMES ADMINISTERED OVER FIRST 3 WK, Promoter: NONE USED): 7/14 (50%), 6/15 (40%), 20%, not significant
- tumour outcome (control, treated, inhibition, significance) (Carcinogen: 2,2'-DIHYDROXY-DI-N-PROPYLNITROSAMINE, 53609-64-6, N-ETHYL-N-HYDROXYETHYLNITROSAMINE, 13147-25-6, 3,2'-DIMETHYL-4-AMINO-, Carcinogen: 2,2'-DIHYDROXY-DI-N-PROPYLNITROSAMINE, 53609-64-6, N-ETHYL-N-HYDROXYETHYLNITROSAMINE, 13147-25-6, 3,2'-DIMETHYL-4-AMINO-, Dose [Inhibitor]: 0, 0.2% IN DIET FOR 32 WK BEGINNING 1 WK POST CARCINOGEN TREATMENT (STUDY DURATION: 36 WK), Strain/Sex: F344/MALE, Target Tissue: Type of Lesion: LUNG: CARCINOMA, Dose [Carcinogen]: 1000 MG/KG BW DHPN TWICE, 1500 MG/KG BW EHEN TWICE, 75 MG/KG BW 3 TIMES ADMINISTERED OVER FIRST 3 WK, Promoter: NONE USED): 1/14 (7%), 3/15 (20%, -186%, not significant
- tumour outcome (control, treated, inhibition, significance) (Carcinogen: 2,2'-DIHYDROXY-DI-N-PROPYLNITROSAMINE, 53609-64-6, N-ETHYL-N-HYDROXYETHYLNITROSAMINE, 13147-25-6, 3,2'-DIMETHYL-4-AMINO-, Carcinogen: 2,2'-DIHYDROXY-DI-N-PROPYLNITROSAMINE, 53609-64-6, N-ETHYL-N-HYDROXYETHYLNITROSAMINE, 13147-25-6, 3,2'-DIMETHYL-4-AMINO-, Dose [Inhibitor]: 0, 0.2% IN DIET FOR 32 WK BEGINNING 1 WK POST CARCINOGEN TREATMENT (STUDY DURATION: 36 WK), Strain/Sex: F344/MALE, Target Tissue: Type of Lesion: THYROID GLAND: ADENOMA, Dose [Carcinogen]: 1000 MG/KG BW DHPN TWICE, 1500 MG/KG BW EHEN TWICE, 75 MG/KG BW 3 TIMES ADMINISTERED OVER FIRST 3 WK, Promoter: NONE USED): 3/14 (21%), 3/15 (20%), 5%, not significant
- tumour outcome (control, treated, inhibition, significance) (Carcinogen: 2,2'-DIHYDROXY-DI-N-PROPYLNITROSAMINE, 53609-64-6, N-ETHYL-N-HYDROXYETHYLNITROSAMINE, 13147-25-6, 3,2'-DIMETHYL-4-AMINO-, Carcinogen: 2,2'-DIHYDROXY-DI-N-PROPYLNITROSAMINE, 53609-64-6, N-ETHYL-N-HYDROXYETHYLNITROSAMINE, 13147-25-6, 3,2'-DIMETHYL-4-AMINO-, Dose [Inhibitor]: 0, 0.2% IN DIET FOR 32 WK BEGINNING 1 WK POST CARCINOGEN TREATMENT (STUDY DURATION: 36 WK), Strain/Sex: F344/MALE, Target Tissue: Type of Lesion: URINARY BLADDER: CARCINOMA, Dose [Carcinogen]: 1000 MG/KG BW DHPN TWICE, 1500 MG/KG BW EHEN TWICE, 75 MG/KG BW 3 TIMES ADMINISTERED OVER FIRST 3 WK, Promoter: NONE USED): 1/14 (7%), 1/15 (7%), 0%, not significant
- outcome (Carcinogen: 2,2'-DIHYDROXY-DI-N-PROPYLNITROSAMINE, 53609-64-6, N-ETHYL-N-HYDROXYETHYLNITROSAMINE, 13147-25-6, 3,2'-DIMETHYL-4-AMINO-, Carcinogen: 2,2'-DIHYDROXY-DI-N-PROPYLNITROSAMINE, 53609-64-6, N-ETHYL-N-HYDROXYETHYLNITROSAMINE, 13147-25-6, 3,2'-DIMETHYL-4-AMINO-, Dose [Inhibitor]: 0, 0.2% IN DIET FOR 32 WK BEGINNING 1 WK POST CARCINOGEN TREATMENT (STUDY DURATION: 36 WK), Strain/Sex: F344/MALE, Target Tissue: Type of Lesion: URINARY BLADDER: PAPILLOMA, Dose [Carcinogen]: 1000 MG/KG BW DHPN TWICE, 1500 MG/KG BW EHEN TWICE, 75 MG/KG BW ADMINISTERED OVER FIRST 3 WK, Promoter: NONE USED): 0/14 (0%), 3/15 (20%), -100%, not significant
- tumour outcome (control, treated, inhibition, significance) (Carcinogen: 2,2'-DIHYDROXY-N-PROPYLNITROSAMINE, 53609-64-6, N-ETHYL-N-HYDROXYETHYL- NITROSAMINE, 13147-25-6, 3,2'-DIMETHYL-4-AMI, Carcinogen: 2,2'-DIHYDROXY-N-PROPYLNITROSAMINE, 53609-64-6, N-ETHYL-N-HYDROXYETHYL- NITROSAMINE, 13147-25-6, 3,2'-DIMETHYL-4-AMI, Dose [Inhibitor]: 0, 0.2% IN DIET BEGINNING 1 WK POST LAST CARCINOGEN DOSE AND CONTINUING FOR 32 WK (STUDY DURATION: 36 WK), Strain/Sex: F344/MALE, Target Tissue: Type of Lesion: LUNG: ADENOMA, Dose [Carcinogen]: 1000 MG/KG IP DHPN 2X , 1500 MG/KG GAV EHEN 2X AND 75 MG/KG SC DMAB 3X GIVEN OVER THE INITIAL 3 WK PERIOD AT 3-4 D INTER, Promoter: NONE USED): 7/14 (50%), 6/15 (40%), 20%, not calculated
- tumour outcome (control, treated, inhibition, significance) (Carcinogen: 2-AMINO-1-METHYL-6-PHENYLIMIDAZO[4,5-B]PYRIDINE [105650-23-5], Dose [Inhibitor]: 0.1% IN DIET FOR 54 WK (STUDY DURATION: 54 WK), Strain/Sex: F344/DUCRJ/FEMALE, Target Tissue: Type of Lesion: COLON: ADENOMA OR ADENOCARCINOMA, Dose [Carcinogen]: 0.02% IN DIET FOR 54 WK (STUDY DURATION: 54 WK), Promoter: NONE): 3/20 (15%), 3/20 (15%), 0%, not significant
- tumour outcome (control, treated, inhibition, significance) (Carcinogen: 2-AMINO-1-METHYL-6-PHENYLIMIDAZO[4,5-B]PYRIDINE [105650-23-5], Dose [Inhibitor]: 0.1% IN DIET FOR 54 WK (STUDY DURATION: 54 WK), Strain/Sex: F344/DUCRJ/FEMALE, Target Tissue: Type of Lesion: MAMMARY GLAND: ADENOMA OR ADENOCARCINOMA, Dose [Carcinogen]: 0.02% IN DIET FOR 54 WK (STUDY DURATION: 54 WK), Promoter: NONE): 8/20 (40%), 3/20 (15%), 63%, not significant
